Data on 2 molecules can be found in patent US20050282893A1 (priority 2004, published 2005).

Where “and” joins values, the source holds several entries; their conditions need not be identical. Equal entries are not always repeated. Where two headings read alike, the source gives them in different places. Where only a bound is given, the exact number is not on record here.

In one data set the test system is FaDu cells. As to the kind of experiment: Cell growth of FaDu cells transfected with hTR antisense or sense. It counts as cell-based, human. An excerpt:
hTR antisense inhibits telomerase. The antisense study consisted of the following steps: (a) construction of a sense and antisense to the RNA portion of the human telomerase (hTR), (b) stable transfection of cells with the hTR antisense (or hTR sense control), and (c) determination of the ability of the hTR antisense to inhibit telomerase activity and induce telomere shortening. The methodologies are detailed in the art, for example, by Mo et al., Cancer Res. 2003.
Transfection procedures. Transfection of the antisense construct used an IPTG-inducible mammalian expression system. The resulting clones were used for experiments.
Effect of hTR antisense on cell growth. Table 2 summarizes the results which show a slower growth rate for the antisense +IPTG cells (i.e., cells that were transfected by hTR antisense and treated with IPTG to induce the expression of […]) compared to cells that had either not been transfected with the antisense, not transfected but treated with IPTG, transfected with the sense and treated with IPTG, or transfected with the antisense but without the IPTG induction (i.e., control, +IPTG, +sense +IPTG, and antisense).

The next data set relates to human telomerase. As to the kind of experiment: Telomerase activity by improved TRAP in transfected FaDu cells. It is filed as cell-based. The method, then:
Inhibition of telomerase activity in cell lysates and intact cells. The modified Telomeric Repeat Amplification Protocol (TRAP) assay (Gan, et al., Pharm. Res., 18:488-493, 2001) was used to detect telomerase activity in cell lysate. The telomerase activity in intact cells was measured using intracellular TRAP, as follows. Cells (1×10^5) were washed twice with PBS and centrifuged. The cell pellet was resuspended in 100 μl of serum-free RPMI 1640 containing 5 u/ml of Streptolysin O, 2 μM of TS primer, and 50 μM of dNTP, and incubated at room temperature for 5 min. The enzyme streptolysin O was used to increase the cell membrane permeability to the TS primer. Upon entering a cell, the TS primer was elongated by the intracellular telomerase in situ. The elongated TS primer was then isolated from the cells and used as the template for PCR amplification. Then 200 μl of RPMI 1640 medium containing 10% FBS was added to the cells to stop the permeating process. […] The cells were then lyzed and the cell lysates, which contained the already extended TS primer, was directly analyzed by TRAP.
(§1) Effect of hTR antisense on telomere length and telomerase activity. Telomere length (referred to as terminal restriction fragment) was measured using the TALA method. Telomerase activity was measured using the improved TRAP method.

In data set [1] the test system is telomere length in FaDu cells. The data set is described as follows: Telomere length (terminal restriction fragment) by TALA in transfected FaDu cells. It is filed as cell-based, human.
Excerpt: (§2) Measurement of telomere length in cultured cells. Two methods were used to measure telomere length. The first method was a solution hybridization based telomere amount and length assay (TALA) (Gan, et al., Pharm. Res., 18:1655-1659, 2001) that measures the mean length of the terminal restriction fragments (TRF). The second method was fluorescence in situ hybridization (FISH) to detect telomere signal and to estimate the approximate length of individual telomere structures at the end of chromosomes. The FISH method is as described in U.S. patent application Ser. No. 09/587,662 and Gan, et al., 2001.
as §1

In data set [2] the target is T1, telomerase (Homo sapiens, UniProt O14746). As to the kind of experiment: Intracellular TRAP, telomerase activity in intact cells. It is filed as cell-based. To be noted: mean ± SD, read-out: IC50, inhibition of telomerase activity.
Target sequence in this assay (O14746 whole entry): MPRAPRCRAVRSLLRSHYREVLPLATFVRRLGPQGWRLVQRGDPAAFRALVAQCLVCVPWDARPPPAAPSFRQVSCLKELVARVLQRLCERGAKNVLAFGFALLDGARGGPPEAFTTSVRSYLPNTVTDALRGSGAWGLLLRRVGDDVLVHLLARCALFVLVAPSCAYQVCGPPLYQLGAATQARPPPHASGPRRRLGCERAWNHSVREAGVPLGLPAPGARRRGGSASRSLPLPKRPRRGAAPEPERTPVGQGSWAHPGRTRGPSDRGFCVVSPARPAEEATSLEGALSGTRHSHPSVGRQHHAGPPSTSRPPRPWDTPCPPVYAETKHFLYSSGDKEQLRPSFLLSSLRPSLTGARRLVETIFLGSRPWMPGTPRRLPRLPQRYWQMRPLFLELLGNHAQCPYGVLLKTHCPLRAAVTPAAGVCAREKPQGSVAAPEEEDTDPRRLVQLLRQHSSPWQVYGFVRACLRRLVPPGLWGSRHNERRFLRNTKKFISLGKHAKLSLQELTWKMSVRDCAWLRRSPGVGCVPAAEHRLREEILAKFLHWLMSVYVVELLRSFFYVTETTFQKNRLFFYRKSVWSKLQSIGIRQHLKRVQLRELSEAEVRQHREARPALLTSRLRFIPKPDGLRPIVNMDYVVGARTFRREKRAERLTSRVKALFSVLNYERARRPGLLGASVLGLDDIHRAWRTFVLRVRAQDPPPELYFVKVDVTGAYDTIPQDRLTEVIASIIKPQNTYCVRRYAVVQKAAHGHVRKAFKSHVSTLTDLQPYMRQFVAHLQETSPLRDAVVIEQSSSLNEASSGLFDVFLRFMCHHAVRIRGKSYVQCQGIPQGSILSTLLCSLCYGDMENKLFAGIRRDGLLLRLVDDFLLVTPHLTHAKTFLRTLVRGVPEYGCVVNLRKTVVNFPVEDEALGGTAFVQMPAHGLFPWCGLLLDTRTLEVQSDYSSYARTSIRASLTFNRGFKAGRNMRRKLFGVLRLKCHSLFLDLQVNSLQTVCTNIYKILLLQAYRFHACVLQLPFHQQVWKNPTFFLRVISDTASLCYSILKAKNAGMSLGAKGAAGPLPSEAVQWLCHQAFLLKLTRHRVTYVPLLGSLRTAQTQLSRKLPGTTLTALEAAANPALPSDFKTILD
Target sequence in this assay (O60832 whole entry partner): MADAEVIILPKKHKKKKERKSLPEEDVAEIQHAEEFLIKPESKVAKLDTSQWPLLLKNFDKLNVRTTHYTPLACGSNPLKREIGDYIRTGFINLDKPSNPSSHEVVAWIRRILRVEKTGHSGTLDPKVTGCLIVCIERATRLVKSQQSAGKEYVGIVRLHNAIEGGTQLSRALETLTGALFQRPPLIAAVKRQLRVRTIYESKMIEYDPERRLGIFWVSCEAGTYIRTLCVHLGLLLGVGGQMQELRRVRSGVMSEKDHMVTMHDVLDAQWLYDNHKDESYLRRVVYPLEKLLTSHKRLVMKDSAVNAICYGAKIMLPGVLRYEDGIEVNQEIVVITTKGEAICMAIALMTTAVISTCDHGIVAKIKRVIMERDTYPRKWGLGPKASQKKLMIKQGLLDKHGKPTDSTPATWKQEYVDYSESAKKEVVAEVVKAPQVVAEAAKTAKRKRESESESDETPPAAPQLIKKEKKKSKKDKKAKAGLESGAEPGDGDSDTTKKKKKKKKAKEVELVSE
Target sequence in this assay (Q9NPE3 whole entry partner): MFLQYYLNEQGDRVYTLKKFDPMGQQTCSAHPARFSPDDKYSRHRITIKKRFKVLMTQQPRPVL
Target sequence in this assay (Q9NX24 whole entry partner): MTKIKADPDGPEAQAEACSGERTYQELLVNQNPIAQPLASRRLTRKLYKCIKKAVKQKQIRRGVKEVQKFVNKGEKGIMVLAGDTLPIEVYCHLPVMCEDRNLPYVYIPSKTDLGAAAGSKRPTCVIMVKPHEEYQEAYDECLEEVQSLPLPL
Target sequence in this assay (Q9NY12 whole entry partner): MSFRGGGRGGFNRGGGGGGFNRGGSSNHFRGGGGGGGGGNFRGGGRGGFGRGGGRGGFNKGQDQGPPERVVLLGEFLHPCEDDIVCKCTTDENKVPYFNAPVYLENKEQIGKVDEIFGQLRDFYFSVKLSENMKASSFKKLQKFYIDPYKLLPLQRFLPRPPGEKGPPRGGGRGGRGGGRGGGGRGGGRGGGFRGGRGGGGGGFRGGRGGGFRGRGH
Another data set is described as follows: in vivo. To be noted: BALB/c nu/nu, mouse, plasma, intravenous, 10 mg/kg.
For data set [3] the following is noted: human patients; cited from earlier work.
The target of data set [4] is T1, telomerase. The data set is described as follows: Modified TRAP assay, telomerase activity in cell lysate (cell extract). It is filed as biochemical. To be noted: mean ± SD, read-out: IC50, inhibition of telomerase activity. The procedure: Inhibition of telomerase activity in cell lysates and intact cells. The modified Telomeric Repeat Amplification Protocol (TRAP) assay (Gan, et al., Pharm. Res., 18:488-493, 2001) was used to detect telomerase activity in cell lysate. The telomerase activity in intact cells was measured using intracellular TRAP, as follows. Cells (1×10^5) were washed twice with PBS and centrifuged. The cell pellet was resuspended in 100 μl of serum-free RPMI 1640 containing 5 u/ml of Streptolysin O, 2 μM of TS primer, and 50 μM of dNTP, and incubated at room temperature for 5 min. The enzyme streptolysin O was used to increase the cell membrane permeability to the TS primer. Upon entering a cell, the TS primer was elongated by the intracellular telomerase in situ. The elongated TS primer was then isolated from the cells and used as the template for PCR amplification. Then 200 μl of RPMI 1640 medium containing 10% FBS was added to the cells to stop the permeating process. The mixture was incubated at 30° C. for 30 min to allow the extension of intracellular TS primer by telomerase. The cells were then lyzed and the cell lysates, which contained the already extended TS primer, was directly analyzed by TRAP.
Treatment Protocol. Treatment with suramin or AZT was initiated after cells were allowed to attach to the growth surface in culture flasks. […]
Target sequence in this assay (O14746 whole entry): as the sequence (O14746 whole entry) above
Target sequence in this assay (O60832 whole entry partner): as the sequence (O60832 whole entry partner) above
Target sequence in this assay (Q9NPE3 whole entry partner): as the sequence (Q9NPE3 whole entry partner) above
Target sequence in this assay (Q9NX24 whole entry partner): as the sequence (Q9NX24 whole entry partner) above
Target sequence in this assay (Q9NY12 whole entry partner): as the sequence (Q9NY12 whole entry partner) above

Data set [5] deals with telomere length in FaDu and PC3 cells. As to the kind of experiment: Telomere length in cultured cells after prolonged treatment (TALA / FISH). It counts as cell-based, human. Conditions: prolonged treatment (7-15 weeks).
Excerpt: as §2
Treatment Protocol. Treatment with suramin or AZT was initiated after cells were allowed to attach to the growth surface in culture flasks. On the day of experiments, the culture medium was removed and replaced with inhibitor-containing medium.

For data set [6], the target named is T1, telomerase. As to the kind of experiment: Telomerase IC50 determination, general method. It counts as biochemical. To be noted: read-out: IC50 against telomerase. An excerpt:
One method used to identify compounds of the invention that inhibit telomerase activity involves placing cells, tissues, or preferably a cellular extract or other preparation containing telomerase, in contact with several known concentrations of a test compound in a buffer compatible with telomerase activity. […] Other methods for determining the inhibitory concentration of a compound of the invention against telomerase can be employed as will be apparent to those of skill in the art based on the disclosure herein.
Target sequence in this assay (O14746 whole entry): as the sequence (O14746 whole entry) above

The subject of the next data set is FaDu tumor. As to the kind of experiment: Telomere length by FISH in FaDu tumors implanted in mice. It counts as in vivo. The method, then:
Treatment protocol. FaDu cells (0.5˜1×10^6 cells in a volume of 100 μl) were implanted subcutaneously in male BALB/c nu/nu mice. […] The first dose was administered immediately after tumor implantation, with repeat doses given twice a week thereafter. […] Frozen tissue sections were analyzed for telomere length in individual cells using fluorescent in situ hybridization. About 10 microscope fields at 400-fold magnification were randomly chosen for each section, and the percentage of tumor cells with attenuated or lost telomere signals were counted.

Data set [7] is described as follows: Suramin plasma pharmacokinetics in beagle dogs. It counts as in vivo. Conditions: 6.75 mg/kg iv infusion over 30 minutes. An excerpt: Treatment protocol. […] The animals were cannulated in the cephalic veins of both front legs.
The nature of data set [8]: Intravesical suramin in dogs: bladder contents, bladder wall and plasma concentrations. It is filed as in vivo. Conditions: for concentration at 120 min: beagle, dog, bladder wall tissue, other: intravesical, 6 mg/ml. The method, then: Treatment protocol Five beagle dogs, weighing 9.0±0.4 kg, were used. The animals were cannulated in a cephalic vein for administration of anesthetics, and in a jugular vein for blood sampling. A urethral catheter was inserted for dose instillation and sampling of the bladder contents. […] Concentrations of the bladder contents and systemic plasma were sampled at frequent intervals for 120 minutes, at which time the bladder tissue was harvested and the animal sacrificed. Tissue sections of approximately 2 cm×2 cm surface area were cut from the bladder wall, and rapidly frozen on a flat stainless steel plate cooled on dry ice. The outer edges of the tissue samples were trimmed to avoid contamination with instillation fluid, and the frozen tissues cut into 40 μm sections parallel to the urothelial surface.

A further data set relates to FaDu tumors. As to the kind of experiment: Low-dose suramin, tumor size in mice implanted with FaDu tumors. It is filed as in vivo. To be noted: one of six animals; suramin 10 mg/kg ip twice-weekly for 6 weeks. The method, then: Treatment Protocol. Immunosuppressed mice were injected subcutaneously in the thigh area with 5×10^5 FaDu cells. […] Tumor sizes were observed twice-weekly.

As usually defined, the IC50 is the concentration that gives 50% inhibition. By half-life is commonly meant the time in which the quantity being followed falls by half. Broadly, the clearance is a measure of how efficiently the substance is removed, as volume per time.

The molecule `CC(C)S[C@@H]1O[C@H](CO)[C@H](O)[C@H](O)[C@H]1O` [+IPTG] had a Doubling time in the data set on FaDu cells of 23 h. The “Telomerase activity, % of control” value with human telomerase was 98.9 % of control. The Terminal restriction fragment in data set [1] is given as 2.91 kb.

Regarding `Cc1ccc(C(=O)Nc2ccc(S(=O)(=O)O)c3cc(S(=O)(=O)O)cc(S(=O)(=O)O)c23)cc1NC(=O)c1cccc(NC(=O)Nc2cccc(C(=O)Nc3cc(C(=O)Nc4ccc(S(=O)(=O)O)c5cc(S(=O)(=O)O)cc(S(=O)(=O)O)c45)ccc3C)c2)c1` [Suramin, suramin], the IC50 is 1700 ± 1000 nM on telomerase [2] (FaDu, intact cell); 1400 ± 1100 nM at telomerase [2] (MCF7, intact cell); 2300 ± 900 nM at telomerase [2] (PC3, intact cell); 2800 ± 1500 nM on telomerase [4] (MCF7, cell extract); 1600 ± 700 nM on telomerase [4] (PC3, cell extract); below 10000 nM on telomerase [6]. For the same molecule, in “in vivo”, the concentration at 72 h is ~10 µM and ~14000 ng/mL. Further, the “half-life, first phase of triphasic plasma decline” value in data set [3] was 0.229 days. In [3], the “half-life, second phase of triphasic plasma decline” value is 4.1 days. Further, the “half-life, third phase of triphasic plasma decline” value in [3] is 78 days. Moreover, the total body clearance in data set [3] is reported as 0.0095 liter/hour/m^2. Besides, in data set [5], the telomere shortening result is reported as “about 30%”. For the same molecule, the “bodyweight increase compared with saline” value in the data set with FaDu tumor (10 mg/kg iv twice a week) was “undistinguishable rates of bodyweight increases”. The tumor establishment rate in the data set on FaDu tumor (10 mg/kg iv twice a week from implantation) came out at 100%. The “fraction of cells with a reduced or eliminated telomere signal” value is given as “approximately 10%” in the data set with FaDu tumor (first two weeks of treatment, 10 mg/kg iv twice a week); “approximately 40%” with FaDu tumor (week 3, 10 mg/kg iv twice a week); 75% with FaDu tumor (week 4, 10 mg/kg iv twice a week); “over 80%” in the data set on FaDu tumor (week 5, 10 mg/kg iv twice a week); 95% in the data set on FaDu tumor (week 6, 10 mg/kg iv twice a week). The terminal half-life in data set [7] (6.75 mg/kg) is 13 days. In addition, in data set [7] (beagle, dog, plasma, read-out: terminal half-life (converted)), the half-life was 13 days. Also, the clearance in [7] (beagle, dog, plasma, read-out: total clearance (converted)) was 2.1 mL/h/kg. Besides, the “suramin concentration in the bladder contents” value in data set [8] (120 minutes after intravesical 6 mg/ml) came out at 3.6 mg/mL. The plasma concentrations result in data set [8] (at all times, intravesical 6 mg/ml) is given as “less than 0.1 μg/ml”. Besides, the concentration at 120 min in data set [8] (at 0 mm (urethral surface), 120 minutes, read-out: bladder wall tissue concentration) is around 80000 ng/g; in [8] (at approximately 2 mm depth, read-out: bladder wall tissue concentration), around 3000 ng/g; in data set [8] (remainder of the bladder wall, read-out: bladder wall tissue concentration), around 3000 ng/g; in [8] (summary of Example 13, read-out: concentrations in the targeted tissues after local administration) it was 5000 to 100000 ng/g. The tumor outcome in the data set with FaDu tumors is on record as “completely disappeared”.
